≈ marks a conversion by molar mass, not a printed value. Calls of active or inactive are those of the source. No cut-off for these calls is given here.
Tests used:
Type in all cases: functional
Bacillus subtilis = experiment: Antimicrobial activity against Bacillus subtilis ATCC 6633 assessed as growth inhibition after 24 hr by NCCLS broth dilution method
Escherichia coli = experiment: Antimicrobial activity against Escherichia coli ATCC 25922 assessed as growth inhibition after 24 hr by NCCLS broth dilution method
Staphylococcus aureus = experiment: Antimicrobial activity against Staphylococcus aureus ATCC 25923 assessed as growth inhibition after 24 hr by NCCLS broth dilution method
Pseudomonas aeruginosa = experiment: Antimicrobial activity against Pseudomonas aeruginosa ATCC 27853 assessed as growth inhibition after 24 hr by NCCLS broth dilution method

Row | Structure (SMILES) | MIC (Bacillus subtilis) | MIC (Bacillus subtilis; ATCC 6633, 24 h) [µg/mL] | MIC (Escherichia coli) | MIC (Escherichia coli; ATCC 25922, 24 h) [µg/mL] | MIC (Staphylococcus aureus) | MIC (Staphylococcus aureus; ATCC 25923, 24 h) [µg/mL] | MIC (Pseudomonas aeruginosa) | MIC (Pseudomonas aeruginosa; ATCC 27853, 24 h) [µg/mL]
1 | CN1CCN(c2cc3ncnc(Sc4nnc(-c5cccnc5)o4)c3cc2NC(=O)NC2CCCCC2)CC1 | inactive | 12.5 (≈ 22.9 µM) | inactive | 25 (≈ 45.8 µM) | inactive | 50 (≈ 91.6 µM) | inactive | 50 (≈ 91.6 µM)
2 | Cc1ccc(NC(=S)Nc2ccc3ncnc(Sc4nnc(-c5cccnc5)o4)c3c2)cc1 | inactive | 25 (≈ 53 µM) | inactive | 50 (≈ 106 µM) | inactive | 25 (≈ 53 µM) | inactive | 75 (≈ 159 µM)
3 | COc1ccccc1NC(=S)Nc1ccc2ncnc(Sc3nnc(-c4cccnc4)o3)c2c1 | inactive | 25 (≈ 51.3 µM) | inactive | 25 (≈ 51.3 µM) | inactive | 12.5 (≈ 25.6 µM) | inactive | 50 (≈ 103 µM)
4 | CN1CCN(c2cc3ncnc(Sc4nnc(-c5cccnc5)o4)c3cc2NC(=S)Nc2ccc(Cl)cc2)CC1 | inactive | 12.5 (≈ 21.2 µM) | inactive | 50 (≈ 84.7 µM) | inactive | 25 (≈ 42.4 µM) | inactive | 50 (≈ 84.7 µM)
5 | CN1CCN(c2cc3ncnc(Sc4nnc(-c5cccnc5)o4)c3cc2NC(=O)Nc2ccccc2)CC1 | inactive | 12.5 (≈ 23.2 µM) | inactive | 25 (≈ 46.3 µM) | inactive | 25 (≈ 46.3 µM) | inactive | 50 (≈ 92.7 µM)
6 | O=C(Nc1ccc2ncnc(Sc3nnc(-c4cccnc4)o3)c2c1)Nc1ccccc1Cl | inactive | 12.5 (≈ 26.3 µM) | inactive | 25 (≈ 52.5 µM) | inactive | 25 (≈ 52.5 µM) | inactive | 75 (≈ 158 µM)
7 | Cc1cccc(NC(=S)Nc2ccc3ncnc(Sc4nnc(-c5cccnc5)o4)c3c2)c1 | inactive | 75 (≈ 159 µM) | inactive | 50 (≈ 106 µM) | inactive | 75 (≈ 159 µM) | inactive | 100 (≈ 212 µM)
8 | CC1COc2c(N3CCN(C)CC3)c(F)cc3c(=O)c(C(=O)O)cn1c23 (stereo not given) [OFLOXACIN] | inactive | 0.125 (≈ 0.346 µM) | inactive | 0.125 (≈ 0.346 µM) | inactive | 0.25 (≈ 0.692 µM) | inactive | 10 (≈ 27.7 µM)
9 | CN1CCN(c2cc3ncnc(Sc4nnc(-c5cccnc5)o4)c3cc2NC(=S)Nc2ccccc2)CC1 | inactive | 25 (≈ 45 µM) | inactive | 25 (≈ 45 µM) | inactive | 50 (≈ 90 µM) | inactive | 50 (≈ 90 µM)
10 | CC1(C)S[C@@H]2[C@H](NC(=O)Cc3ccccc3)C(=O)N2[C@H]1C(=O)O [PENICILLIN G] | inactive | 1.56 (≈ 4.67 µM) | inactive | 6.25 (≈ 18.7 µM) | inactive | 1.56 (≈ 4.67 µM) | inactive | 12.5 (≈ 37.4 µM)
11 | CN1CCN(c2cc3ncnc(Sc4nnc(-c5cccnc5)o4)c3cc2NC(=S)Nc2cccc(Cl)c2)CC1 | inactive | 25 (≈ 42.4 µM) | inactive | 12.5 (≈ 21.2 µM) | inactive | 6.25 (≈ 10.6 µM) | inactive | 50 (≈ 84.7 µM)
12 | Cc1ccccc1NC(=S)Nc1cc2c(Sc3nnc(-c4cccnc4)o3)ncnc2cc1N1CCN(C)CC1 | inactive | 75 (≈ 132 µM) | inactive | 100 (≈ 176 µM) | inactive | 50 (≈ 87.8 µM) | inactive | 25 (≈ 43.9 µM)
13 | S=C(Nc1ccccc1)Nc1ccc2ncnc(Sc3nnc(-c4cccnc4)o3)c2c1 | inactive | 75 (≈ 164 µM) | inactive | 50 (≈ 109 µM) | inactive | 50 (≈ 109 µM) | inactive | 100 (≈ 219 µM)
14 | Cc1cccc(NC(=O)Nc2cc3c(Sc4nnc(-c5cccnc5)o4)ncnc3cc2N2CCN(C)CC2)c1 | inactive | 25 (≈ 45.2 µM) | inactive | 25 (≈ 45.2 µM) | inactive | 50 (≈ 90.3 µM) | inactive | 50 (≈ 90.3 µM)
15 | Cc1ccc(NC(=O)Nc2ccc3ncnc(Sc4nnc(-c5cccnc5)o4)c3c2)cc1 | inactive | 75 (≈ 165 µM) | inactive | 50 (≈ 110 µM) | inactive | 12.5 (≈ 27.4 µM) | inactive | 12.5 (≈ 27.4 µM)

— ChEMBL document CHEMBL3046216, “Synthesis, biological evaluation and QSAR study of a series of substituted quinazolines as antimicrobial agents” (2013)
